PubChem BioAssay (NCI)
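96-well plates; 48 h exposure; 5 concentrations. Endpoints by linear interpolation between flanking doses. Not reached: highest tested concentration assigned. GI50: concentration for 50% inhibition of growth. Definition used: TGI = concentration required for complete inhibition of growth.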

Assays:
Test in all cases: growth of human tumour cells (NCI), 48 h
[1] = tested on: MDA-MB-468 breast
[2] = tested on: 786-0 renal
[3] = tested on: A498 renal
[4] = tested on: A549 NSCLC
[5] = tested on: ACHN renal
[6] = tested on: BT-549 breast
[7] = tested on: CAKI-1 renal
[8] = tested on: CCRF-CEM leukemia
[9] = tested on: COLO 205 colon
[10] = tested on: DU-145 prostate
[11] = tested on: EKVX NSCLC
[12] = tested on: HCC-2998 colon
[13] = tested on: HCT-116 colon
[14] = tested on: HCT-15 colon
[15] = tested on: HL-60(TB) leukemia
[16] = tested on: HOP-62 NSCLC
[17] = tested on: HOP-92 NSCLC
[18] = tested on: HS 578T breast
[19] = tested on: HT29 colon
[20] = tested on: IGROV1 ovarian
[21] = tested on: K-562 leukemia
[22] = tested on: KM12 colon
[23] = tested on: LOX IMVI melanoma
[24] = tested on: M14 melanoma
[25] = tested on: MALME-3M melanoma
[26] = tested on: MCF7 breast
[27] = tested on: MDA-MB-231 breast
[28] = tested on: MDA-MB-435
[29] = tested on: MOLT-4 leukemia
[30] = tested on: NCI-H226 lung
[31] = tested on: NCI-H23 lung
[32] = tested on: NCI-H460 lung
[33] = tested on: NCI-H522 lung
[34] = tested on: OVCAR-3 ovarian
[35] = tested on: OVCAR-4 ovarian
[36] = tested on: OVCAR-5 ovarian
[37] = tested on: OVCAR-8 ovarian
[38] = tested on: PC-3 prostate
[39] = tested on: RPMI-8226 leukemia
[40] = tested on: RXF 393 renal
[41] = tested on: SF-268 CNS
[42] = tested on: SF-295 CNS
[43] = tested on: SF-539 CNS
[44] = tested on: SK-MEL-2 melanoma
[45] = tested on: SK-MEL-28 melanoma
[46] = tested on: SK-MEL-5 melanoma
[47] = tested on: SK-OV-3 ovarian
[48] = tested on: SN12C renal
[49] = tested on: SNB-19 CNS
[50] = tested on: SNB-75 CNS
[51] = tested on: SR leukemia
[52] = tested on: SW-620 colon
[53] = tested on: T-47D breast
[54] = tested on: TK-10 renal
[55] = tested on: U251 CNS
[56] = tested on: UACC-257 melanoma
[57] = tested on: UACC-62 melanoma
[58] = tested on: UO-31 renal

Compound: C/C(=N\NC(=S)Nc1ccccc1)c1ccccn1
- GI50 [1]: < 0.0132 µM
- TGI [1]: 0.115 µM

Compound: COc1cc2c(c(Br)c1N)-c1cc(Br)c(N)cc1C2=O
- GI50 [1]: 0.0172 µM
- TGI [1]: 0.0421 µM

Compound: Cn1cc(-c2ccc3c(c2)ncn3-c2ccc(CC(=O)Nc3cc(C(C)(C)C)on3)cc2)cn1
- GI50 [1]: 2.83 µM
- TGI [1]: 16.5 µM

Compound: Cn1cccc1C1CC(=O)N(CCC[Se]C#N)C1=O (centres undefined)
- GI50 [1]: 2.68 µM
- TGI [1]: 9.29 µM

Compound: Nc1nccc(C#Cc2cncnc2Nc2ccc(OCc3cccc(F)c3)c(Cl)c2)n1
- GI50 [1]: 1.51 µM
- TGI [1]: 4.37 µM

Compound: C=C1CCC2C3(C)COC(c4cccc(Cl)c4)OC3CCC2(C)C1/C=C/C1=CCOC1=O (centres undefined)
- GI50 [1]: 1.42 µM
- TGI [1]: 7.82 µM

Compound: C[C@@H](Oc1cc(-n2cnc3ccc(OCC4CCN(C)CC4)cc32)sc1C(N)=O)c1ccccc1C(F)(F)F
- GI50 [1]: 0.0442 µM
- TGI [1]: 0.192 µM

Compound: O=S(=O)(Nc1ccc(-c2nc(-c3cccc(O)c3)c(-c3ccnc(Br)c3)[nH]2)cc1)c1ccccc1
- GI50 [1]: 1.85 µM
- TGI [1]: 5.47 µM

Compound: CC1OC(OC2C(OC3CCC4(C)C(CCC5(C)C4CC=C4C6CC(C)(C)CCC6(CO)C(O)CC45C)C3(C)C)OC(C(=O)O)C(OC3OC(COC4OC(CO)C(O)C(O)C4O)C(O)C(O)C3O)C2O)C(O)C(O)C1O (centres undefined)
- GI50 [1]: 1.85 µM
- TGI [1]: 6.81 µM

Compound: CC[C@]12C=CCN3CC[C@]4(C(=C(C(=O)OC)C1)Nc1ccccc14)[C@@H]32
- GI50 [1]: 3.4 µM
- TGI [1]: 15 µM

Compound: CCCCCCCCCCCCCCCc1ccc(C(=O)C[n+]2ccccc2)cc1
- GI50 [1]: 1.55 µM
- TGI [1]: 2.89 µM

Compound: C#CCSc1nnnn1-c1ccc(Br)c(C)c1
- GI50 [1]: 21.2 µM
- TGI [1]: 79.7 µM

Compound: N=C(N)c1ccc(-c2ccc(-c3ccccc3)o2)cc1
- GI50 [1]: 2.12 µM
- TGI [1]: 4.1 µM

Compound: O=C1/C(=C\c2ccccc2)CN(C(=O)c2ccccc2F)C/C1=C\c1ccccc1
- GI50 [1]: 1.81 µM
- TGI [1]: 3.89 µM

Compound: COc1cccc(C2C3=C(COC3=O)N(CCO)c3cc4c(cc32)CCC4)c1 (centres undefined)
- GI50 [1]: 0.0216 µM
- TGI [1]: 0.177 µM

Compound: c1ccc(CNc2nc(Nc3ccc(-c4nc5ccccc5[nH]4)cc3)c3cn[nH]c3n2)cc1
- GI50 [1]: 2.05 µM
- TGI [1]: 4.81 µM

Compound: O=C1NC(=NC23CC4CC(CC(C4)C2)C3)N/C1=C\c1ccc2ncccc2c1
- GI50 [2]: 8.95 µM
- TGI [2]: 45 µM
- GI50 [3]: 1.12 µM
- TGI [3]: > 100 µM
- GI50 [4]: 4.09 µM
- TGI [4]: 18.6 µM
- GI50 [5]: 4.09 µM
- TGI [5]: 26.2 µM
- GI50 [6]: 4.39 µM
- TGI [6]: 41.9 µM
- GI50 [7]: 4.15 µM
- TGI [7]: 34.7 µM
- GI50 [8]: 3.22 µM
- TGI [8]: 19.1 µM
- GI50 [9]: 5.58 µM
- TGI [9]: > 100 µM
- GI50 [10]: 6.03 µM
- TGI [10]: > 100 µM
- GI50 [11]: 8.33 µM
- TGI [11]: > 100 µM
- GI50 [12]: 7.5 µM
- TGI [12]: > 100 µM
- GI50 [13]: 3.41 µM
- TGI [13]: 16 µM
- GI50 [14]: 2.8 µM
- TGI [14]: 22.7 µM
- GI50 [15]: 3.09 µM
- TGI [15]: 27.3 µM
- GI50 [16]: 6.56 µM
- TGI [16]: > 100 µM
- GI50 [17]: 25.9 µM
- TGI [17]: > 100 µM
- GI50 [18]: 2.9 µM
- TGI [18]: 34.3 µM
- GI50 [19]: 22.8 µM
- TGI [19]: > 100 µM
- GI50 [20]: 6.43 µM
- TGI [20]: > 100 µM
- GI50 [21]: 3.08 µM
- TGI [21]: > 100 µM
- GI50 [22]: 11 µM
- TGI [22]: > 100 µM
- GI50 [23]: 7.86 µM
- TGI [23]: 29.5 µM
- GI50 [24]: 6.07 µM
- TGI [24]: > 100 µM
- GI50 [25]: 28.6 µM
- TGI [25]: 94.9 µM
- GI50 [26]: 6.59 µM
- TGI [26]: > 100 µM
- GI50 [27]: 16.9 µM
- TGI [27]: 64.7 µM
- GI50 [28]: 5.53 µM
- TGI [28]: > 100 µM
- GI50 [1]: 2.11 µM
- TGI [1]: > 100 µM
- GI50 [29]: 3.95 µM
- TGI [29]: 26 µM
- GI50 [30]: 4.91 µM
- TGI [30]: 42.1 µM
- GI50 [31]: 4.98 µM
- TGI [31]: > 100 µM
- GI50 [32]: 3.38 µM
- TGI [32]: 15.2 µM
- GI50 [33]: 1.97 µM
- TGI [33]: 30.8 µM
- GI50 [34]: 2.86 µM
- TGI [34]: 29.7 µM
- GI50 [35]: 16.3 µM
- TGI [35]: 80.8 µM
- GI50 [36]: 64.4 µM
- TGI [36]: > 100 µM
- GI50 [37]: 8 µM
- TGI [37]: 33.2 µM
- GI50 [38]: 15 µM
- TGI [38]: 64.2 µM
- GI50 [39]: 6.82 µM
- TGI [39]: 51.2 µM
- GI50 [40]: 3.45 µM
- TGI [40]: 28.1 µM
- GI50 [41]: 8.17 µM
- TGI [41]: > 100 µM
- GI50 [42]: 7.56 µM
- TGI [42]: 64.9 µM
- GI50 [43]: 1.18 µM
- TGI [43]: > 100 µM
- GI50 [44]: 2.35 µM
- TGI [44]: 10 µM
- GI50 [45]: 12.5 µM
- TGI [45]: > 100 µM
- GI50 [46]: 12.4 µM
- TGI [46]: > 100 µM
- GI50 [47]: 3.59 µM
- TGI [47]: 35.2 µM
- GI50 [48]: 5.17 µM
- TGI [48]: > 100 µM
- GI50 [49]: 11.7 µM
- TGI [49]: > 100 µM
- GI50 [50]: 0.218 µM
- TGI [50]: 26.6 µM
- GI50 [51]: 2.33 µM
- TGI [51]: 12.3 µM
- GI50 [52]: 3.95 µM
- TGI [52]: > 100 µM
- GI50 [53]: 19.4 µM
- TGI [53]: > 100 µM
- GI50 [54]: 6.87 µM
- TGI [54]: 60.7 µM
- GI50 [55]: 10.2 µM
- TGI [55]: 26.8 µM
- GI50 [56]: 66.1 µM
- TGI [56]: > 100 µM
- GI50 [57]: 40.2 µM
- TGI [57]: > 100 µM
- GI50 [58]: 5.03 µM
- TGI [58]: > 100 µM

Compound: O=C(Nc1ccc(-n2cc(-c3ccncc3)c(-c3ccc(O)c(Cl)c3)n2)cc1)c1ccc(Cl)c(Cl)c1
- GI50 [1]: 4.25 µM
- TGI [1]: > 32.5 µM

Compound: O=[N+]([O-])c1ccc([I+]c2ccccc2)cc1
- GI50 [1]: 1.25 µM
- TGI [1]: 4.13 µM

Compound: CCN1C(=O)N(CC)C2C1NN=c1s/c(=C\c3ccc([N+](=O)[O-])cc3)c(=O)n12 (centres undefined)
- GI50 [1]: 0.409 µM
- TGI [1]: 7.14 µM

Compound: c1ccc(COc2ccc(Nc3ncnc4ccc(-c5ccco5)cc34)cc2)cc1
- GI50 [1]: 0.48 µM
- TGI [1]: 5.32 µM

Compound: Oc1ccc(-c2nc(-c3ccc(F)cc3)c(-c3ccncc3)[nH]2)cc1
- GI50 [1]: 6.57 µM
- TGI [1]: 44.4 µM

Compound: O=C(/C=C/c1cccnc1)/C=C/c1cccnc1
- GI50 [1]: 0.762 µM
- TGI [1]: 2.22 µM

Compound: CC1(C)CCC(CN2CCN(c3ccc(C(=O)NS(=O)(=O)c4ccc(NCC5CCOCC5)c([N+](=O)[O-])c4)c(Oc4cnc5[nH]ccc5c4)c3)CC2)=C(c2ccc(Cl)cc2)C1
- GI50 [1]: 2.15 µM
- TGI [1]: 7.16 µM

Compound: Cn1cc(-c2nonc2-c2cn(C)c3ccc(Br)cc23)c2ccccc21
- GI50 [1]: 1.56 µM
- TGI [1]: 5.17 µM

Compound: CCN(CC)CCN1C(=O)c2c(c3c4cc(Br)ccc4[nH]c3c3ccc4ccccc4c23)C1=O
- GI50 [1]: 1.52 µM
- TGI [1]: 3.45 µM

Compound: COc1cccc(N2CCN(C3=C(Cl)C(=O)c4ncccc4C3=O)CC2)c1
- GI50 [1]: 1.75 µM
- TGI [1]: 3.43 µM

Compound: Cc1ccc2c(c1)/C(=N\N=C/c1cn(C(C)C)c3ccccc13)C(=O)N2
- GI50 [1]: 1.84 µM
- TGI [1]: > 100 µM

Compound: S=c1nc(/C=C/c2ccc(Cl)c(Cl)c2)[nH][nH]1
- GI50 [1]: > 100 µM
- TGI [1]: > 100 µM

Compound: Cc1nc(N=C(N)N)nc2ccc3ccccc3c12
- GI50 [1]: 0.43 µM
- TGI [1]: 2.06 µM

Compound: CCOC(=O)/C(=C/c1c(-c2ccccc2)[nH]c2ccccc12)C(=O)c1ccc(Cl)cc1
- GI50 [1]: 4.36 µM
- TGI [1]: > 100 µM

Compound: CCN(CC)c1ccc(/C=C/C2=[N+](C)c3ccccc3C2(C)C)cc1
- GI50 [1]: 0.175 µM
- TGI [1]: 5.88 µM

Compound: Cn1cc(-c2csc(-c3cn(C)c4ncccc34)n2)c2ccccc21
- GI50 [1]: 0.445 µM
- TGI [1]: 6.6 µM

Compound: C=C(CNCCc1ccc(O)cc1)[C@@H]1CC[C@]2(CO)CC[C@]3(C)[C@H](CC[C@@H]4[C@@]5(C)CCC(NCCO)C(C)(C)[C@@H]5CC[C@]43C)[C@@H]12 (some centres undefined)
- GI50 [1]: 1.26 µM
- TGI [1]: 2.92 µM

Compound: COc1cc2nc(-c3ccc(Cl)cc3)cc(OCCCN3CCC(O)CC3)c2cc1OC
- GI50 [1]: 1.56 µM
- TGI [1]: 4.04 µM
